The results in this text go back to ChEMBL document CHEMBL4385609, “Anti-tubulin agents of natural origin: Targeting taxol, vinca, and colchicine binding domains” (Eur J Med Chem, 2019).

≈ marks a conversion by molar mass, not a printed value.

In assay [1] the target is Tubulin. Nature of the assay: Inhibition of tubulin polymerization (unknown origin). It counts as protein-complex assay, Homo sapiens.
Assay [2] is described as follows: Antiproliferative activity against human MCF cells assessed as reduction in cell growth incubated for 48 hrs by MTT assay. The format is functional, cell-based.
A short description of assay [3]: Antiproliferative activity against human […] cells assessed as reduction in cell growth incubated for 48 hrs by MTT assay. The format is functional, cell-based.
Assay [4] has as its system HeLa. Nature of the assay: Antiproliferative activity against human HeLa cells assessed as reduction in cell growth incubated for 48 hrs by MTT assay. It counts as functional, cell-based.
Assay [5] concerns A549. Nature of the assay: Antiproliferative activity against human A549 cells assessed as reduction in cell growth incubated for 48 hrs by MTT assay. It counts as functional, cell-based. The following applies: A549, 48 h.
The subject of assay [6] is K562. Nature of the assay: Antiproliferative activity against human K562 cells assessed as reduction in cell growth incubated for 48 hrs by MTT assay. It counts as functional, cell-based. The following applies: K562, 48 h.
Assay [7] concerns WiDr. Nature of the assay: Antiproliferative activity against human WiDr cells assessed as reduction in cell growth incubated for 48 hrs by MTT assay. It counts as functional, cell-based.
In assay [8] the test system is P388. Nature of the assay: Antiproliferative activity against mouse P388 cells assessed as reduction in cell growth incubated for 48 hrs by MTT assay. The format is functional, cell-based. The following applies: P388, 48 h.
Assay [9] concerns MDA-MB-231. Nature of the assay: Antiproliferative activity against human MDA-MB-231 cells assessed as reduction in cell growth. It counts as functional, cell-based.
Assay [10] relates to A-375. Nature of the assay: Antiproliferative activity against human A375 cells assessed as reduction in cell growth incubated for 24 hrs by MTT assay. The format is functional, cell-based. The following applies: A-375, 24 h.
In assay [11] the test system is A549. Nature of the assay: Antiproliferative activity against human A549 cells assessed as reduction in cell growth incubated for 24 hrs by MTT assay. It counts as functional, cell-based. The following applies: A549, 24 h.
The subject of assay [12] is MCF7. Nature of the assay: Antiproliferative activity against human MCF7 cells assessed as reduction in cell growth. The format is functional, cell-based.
Assay [13] deals with BGC-823. Nature of the assay: Antiproliferative activity against human BGC823 cells assessed as reduction in cell growth incubated for 24 hrs by MTT assay. The format is functional, cell-based. The note with it: BGC-823, 24 h.
The test system of assay [14] is HeLa. Nature of the assay: Antiproliferative activity against human HeLa cells assessed as reduction in cell growth. It counts as functional, cell-based.
The nature of assay [15]: Antiproliferative activity against mouse EMT6/AR1 cells assessed as reduction in cell growth. The format is functional, cell-based.
For assay [16], the system named is CA46. Nature of the assay: Cytotoxicity against human CA46 cells assessed as inhibition of tubulin polymerization after 36 hrs. The format is functional, cell-based. The note with it: CA46, 36 h.
Assay [17] is described as follows: Potency index, ratio of paclitaxel IC50 to laulimalide IC50 for cytotoxicity against human SKVLB-1 cells. The format is functional.
Assay [18] can be described thus: Cytotoxicity against mouse tsFT210 cells. The format is functional.
Assay [19] is filed under the species Bos taurus. Nature of the assay: Inhibition of bovine brain microtubule assembly at 250 uM by turbidimetric assay relative to control.
For assay [20], the system named is U-937. Nature of the assay: Antiproliferative activity against human U937 cells assessed as reduction in cell growth. It counts as functional, cell-based.
The subject of assay [21] is A549. Nature of the assay: Antiproliferative activity against human A549 cells assessed as reduction in cell growth. The format is functional, cell-based.
Assay [22] deals with P388. Nature of the assay: Antiproliferative activity against mouse P388 cells assessed as reduction in cell growth. It counts as functional, cell-based.
Assay [23] can be described thus: Antiproliferative activity against human MEL28 cells assessed as reduction in cell growth. The format is functional, cell-based. The note with it: SK-MEL-28.
The test system of assay [24] is HT-29. Nature of the assay: Antiproliferative activity against human HT-29 cells assessed as reduction in cell growth. It counts as functional, cell-based.
The subject of assay [25] is SKM-1. Nature of the assay: Antiproliferative activity against human SKM1 cells assessed as reduction in cell growth. The format is functional, cell-based.

Consider `CC(C)(C)c1[nH]cnc1/C=c1\[nH]c(=O)/c(=C/c2cc(F)ccc2F)[nH]c1=O`, for which, in [1], the IC50 was determined as 2.6 nM.

Consider `C=CC(C)(C)c1[nH]cnc1/C=C1\NC(=O)[C@H](Cc2ccccc2)NC1=O`, for which the IC50 in assay [2], in [3], in [4], in assay [5], in assay [6] and in assay [7] was 180 to 330 nM in each case. The IC50 in assay [8] lay within 180 to 330 nM.

Turning to `COc1cc(/C=N/OC/C=C/C=C(\C)CCC(O)c2cccs2)cc(OC)c1OC` (centres undefined), the IC50 in assay [9] was 120 nM.

`CC[C@@]1(C)Oc2cc(c([S+]([O-])CCCCCO)cc2O)[C@@H](O)[C@H](NC)C(=O)N[C@@H](C(C)C)C(=O)NC1C(=O)NCC(=O)O` (some centres undefined): the IC50 in assay [10] was found to be 22500 nM; in assay [11] it was 36500 nM.

For the compound `C=CCC1(CC/C(C)=C/C=C/CC/C=C\[C@]2(C)CSC([C@@H]3C[C@@H]3C)=N2)OCCO1`, the IC50 in [12] is 30 nM.

Consider `CC[C@@]1(C)Oc2cc(c([S+]([O-])C[C@@H](O)C[C@H](N)C(=O)O)cc2O)[C@@H](O)[C@H](NC)C(=O)N[C@@H](C)C(=O)NC1C(=O)NCC(=O)O` (some centres undefined), for which the IC50 in assay [13] is 1030 nM.

Take `CC(C)(C)c1[nH]cnc1/C=c1\[nH]c(=O)/c(=C/C(=O)c2ccccc2)[nH]c1=O`: in assay [1], the IC50 was 1400 nM.

In the case of `COc1cc2cc(c1Cl)N(C)C(=O)C[C@H](OC(=O)C(C)C)[C@]1(C)O[C@@H]1[C@H](C)[C@@H]1C[C@@](O)(NC(=O)O1)[C@H](OC)/C=C/C=C(\C)C2` [ANSAMITOCIN P3], the IC50 in [14] turned out to be 5.06 nM; in assay [12] it was 2.06 nM; in assay [15], 141 nM; in [9] it was 15.1 nM.

`COc1ccc(-c2oc3cc(O)c(OC)c(O)c3c(=O)c2OC)cc1O` [CENTAUREIDIN]: the IC50 in assay [16] was 2000 nM.

Turning to `C=C1C[C@H](C)C[C@@H]2CC=C[C@@H](C/C=C\C(=O)O[C@H]([C@@H](O)/C=C/[C@@H]3CC(C)=CCO3)C[C@@H]3O[C@H]3[C@@H](O)C1)O2` [FIJIANOLIDE B], the “Ratio IC50” value in assay [17] was determined as 100.

Take `COc1ccc2c(C[C@@H]3NC(=O)[C@@H]4CCCN4C3=O)c(CC=C(C)C)[nH]c2c1` [TRYPROSTATIN A]: the MIC in assay [18] came out at 16.4 µM (≈ 6.26 µg/mL). Moreover, the inhibition in assay [19] is 40%.

In [18], `CC(C)=CCc1[nH]c2ccccc2c1C[C@@H]1NC(=O)[C@@H]2CCCN2C1=O` [TRYPROSTATIN B] showed an MIC of 4.4 µM (≈ 1.55 µg/mL).

On to `C=C1C[C@@H]2C/C=C/C(=O)C/C(C)=C\C=C\C(=O)O[C@H]([C@H](O)NC(=O)/C=C\C=C\C)C/C(C)=C/[C@H](C1)O2` [ZAMPANOLIDE], for which the IC50 is 2.9 nM in assay [20]; 1 to 5 ng/mL (≈ 2.02 to 10.1 nM) in assay [21]; 1 to 5 ng/mL (≈ 2.02 to 10.1 nM) in assay [22]; 1 to 5 ng/mL (≈ 2.02 to 10.1 nM) in [23]; 1 to 5 ng/mL (≈ 2.02 to 10.1 nM) in [24]; 1.1 nM in [25].
